# Experimental data: patent US20250195517A1, “TREATMENT OF INTRACRANIAL HEMORRHAGE” (ImmunoChem Therapeutics, LLC, priority 2022, published 2025)
# System: animal models of acute brain injuries such as intracranial hemorrhage
# Experiment: animal models of acute brain injuries such as intracranial hemorrhage
# Type: in vivo
# Source text: MW189 is a novel small molecule drug candidate developed as a selective suppressor of disease- and injury-induced proinflammatory cytokine overproduction associated with destructive neuroinflammation/synaptic dysfunction cycles. […] The investigators seek to establish if these targets are modified in humans with intracranial hemorrhage.
smiles,measurement,value
c1ccc(-c2cc(-c3ccncc3)c(N3CCN(c4ncccn4)CC3)nn2)cc1 [MW189],cerebral edema,reduces cerebral edema
same,functional and cognitive performance,improves functional and cognitive performance
same,neuroinflammation,attenuates neuroinflammation
